Experimental data reported in patent publication US4156731A, “Heterocyclic oxime compounds and carbamoyloxime derivatives” (priority 1976, dated 1979).

Legend:
Assay type in all cases: in vivo
Parameters in all cases: key: A: Excellent control; B: Partial control; C: No control
[1] = system: bean aphid (Aphis fabae Scop.); experiment: Bean Aphid Foliage Spray Test; settings: 500 ppm foliage spray, 24 hour holding period
Protocol: (§1) Selected species of the new compounds were evaluated to determine their pesticidal activity against mites and certain insects, including anaphid, a caterpillar, a beetle and a fly.
(§2) Suspensions of the test compounds were prepared by dissolving one gram of compound in 50 milliliters of acetone in which had been dissolved 0.1 gram (10 percent of the weight of compound) of an alkylphenoxy polyethoxyethanol surfactant, as an emulsifying or dispersing agent. The resulting solution was mixed into 150 milliliters of water to give roughly 200 milliliters of a suspension containing the compound in finely divided form. The thus-prepared stock suspension contained 0.5 percent by weight of test compound. The test concentrations in parts per million by weight employed in the tests described hereinbelow were obtained by appropriate dilutions of the stock suspension with water. The test procedures were as follows:
Bean Aphid Foliage Spray Test
Adults and nymphal stages of the bean aphid (Aphis fabae Scop.) reared on potted dwarf nasturtium plants at 65°-70° F. and 50-70 per cent relative humidity, constituted the test insects. For testing purposes, the number of aphids per pot was standardized to 100-150 by trimming plants containing excess aphids.
The test compounds were formulated by diluting the stock suspension with water to give a suspension containing 500 parts of test compound per million parts of final formulation.
The potted plants (one pot per compound tested) infested with 100-150 aphids, were placed on a revolving turntable and sprayed with 100-110 milliliters of test compound formulation by use of a DeVilbiss spray gun set at 40 psig. air pressure. This application, which lasted 25 seconds, was sufficient to wet the plants to run-off. As a control, 100-110 milliliters of a water-acetone-emulsifier solution containing no test compound were also sprayed on infested plants. After spraying, the pots were placed on their sides on a sheet of white standard mimeograph paper which had been previously ruled to facilitate counting. Temperature and humidity in the test room during the 24 hour holding period were 65°-70° F. and 50-70 per cent, respectively. Aphids which fell into the paper and were unable to remain standing after being uprighted were considered dead. Aphids remaining on the plants wre observed closely for movement and those which were unable to move the length of the body upon stimulator by prodding were considered dead. Per cent mortality was recorded for various concentration levels.
(§3) In these tests the pesticidal activity of the compounds against aphid, mite, Southern Armyworm, Mexican Bean Beetle, and house fly was rated as follows: […]

[2] = system: two spotted mite (Tetranychus urticae Koch); experiment: Mite Foliage Spray Test; settings: 500 ppm foliage spray, six days
Protocol: as §1, §2
Adults and nymphal stages of the two spotted mite (Tetranychus urticae Koch), reared on Tendergreen bean plants at 80±5 per cent relative humidity, were the test organisms. Infested leaves from a stock culture were placed on the primary leaves of two bean plants six to eight inches in height, growing in a two-and-a-half inch clay pot. 150-200 mites, a sufficient number for testing, transferred from the excised leaves to the fresh plants in a period of twenty four hours. Following the twenty four hour transfer period, the excised leaves were removed from the infested plants. The test compounds were formulated by diluting the stock suspension with water to give a suspension with water to give a suspension containing 500 parts of test compound per million parts of final formulation. The potted plants (one pot per compound) were placed on a revolving turntable and sprayed with 100-110 milliliters of test compound formulation by use of a DeVilbiss spray gun set at 40 psig. air pressure. This application, which lasted for 25 seconds, was sufficient to wet the plants to run-off. As a control, 100-110 milliliters of a water solution containing acetone and emulsifier in the same concentrations as the test compound formulation, but containing no test compound, were also sprayed on infested plants. The sprayed plants were held at 80±5 per cent relative humidity for six days, after which a mortality count of motile forms were made. Microscopic examination for motile forms was made on the leaves of the test plants. Any individual which was capable of locomotion upon prodding, was considered living.
as §3

[3] = system: house flies (Musca domestica, L.); experiment: Fly Bait Test; settings: adults, 500 ppm in sugar bait, twenty four hours
Protocol: as §1, §2
Four to six day old adult house flies (Musca domestica, L.) reared according to the specifications of the Chemical Specialities Manufacturing Association (Blue Book, McNair-Dorland Co., NY., 1954; pages 234-244, 261) under controlled conditions of 80°±5° F. and 50±5 per cent relative humidity, were the test insects. The flies were immobilized by anesthetizing with carbon dioxide and twenty five immobilized individuals, males and females, were transferred to a cage consisting of a standard food stainer about five inches in diameter which was inverted over a wrapping-paper-covered surface. The test compounds were formulated by diluting the stock suspension with a 10 per cent (by weight) sugar solution to give a suspension containing 500 parts of test compound per million parts of final formulation, by weight. Ten milliliters of the test formulation were added to a souffle cup containing a one inch square of an absorbent cotton pad. This bait cup was introduced and centered on the blotting paper under the food strainer prior to admitting the anesthetized flies. The caged flies were allowed to feed on the bait for twenty four hours, at a temperature of 80°±5° F. and the relative humidity of 50±5 per cent.
as §3

[4] = system: southern armyworm (Prodenia Eridania, (Cram.)); experiment: Southern Armyworm Leaf Spray Test; settings: larvae, 500 ppm leaf spray, three days
Protocol: as §1, §2
Southern Armyworm Leaf Spray Test
Larvae of the southern armyworm (Prodenia Eridania, (Cram.), reared on Tendergreen bean plants at a temperature of 80°±5° F. and a relative humidity of 50±5 per cent, constituted the test insects.
The test compounds were formulated by diluting the stock suspension with water to give a suspension containing 500 parts of test compound per million parts of final formulation. Potted Tendergreen bean plants of standard height and age were placed on a revolving turntable and sprayed with […] of test compound formulation by use of a DeVilbiss spray gun set at 10 psig. air pressure.
This application, which lasted 25 seconds, was sufficient to wet plants to run-off. As a control, 100-110 milliliters of a water-acetone-emulsifier solution containing no test compound were also sprayed on infested plants. When dry, the paired leaves were separated and each one was placed in a 9 centimeter Petric dish lined with moistened filter paper. Five randomly selected larvae were introduced into each dish and the dishes were closed. The closed dishes were labeled and held at 80°-85° F. for three days. Although the larvae could easily consume the whole leaf within twenty-four hours, no more food was added. Larvae which were unable to move the length of the body, even upon stimulation by prodding, were considered dead. Per cent mortality was recorded for various concentration levels.
as §3

[5] = system: Mexican bean beetle (Epilachna varivestis, Muls.); experiment: Mexican Bean Beetle Leaf Spray Test; settings: fourth instar larvae, 500 ppm leaf spray, three days
Protocol: as §1, §2
Mexican Bean Beetle Leaf Spray Test
Fourth instar larvae of the Mexican bean beetle (Epilachna varivestis, Muls.), reared on Tendergreen bean plants at a temperature of 80°±5° F. and 50±5 per cent relative humidity, were the test insects.
The test compounds were formulated by diluting the stock suspension with water to give a suspension containing 500 parts of test compound per million parts of final formulation. Potted Tendergreen bean plants of standard height and age were placed on a revolving turntable and sprayed with 100-110 milliliters of test compound formulation by use of DeVilbiss spray gun set at 10 psig air pressure. This application, which lasted 25 seconds, was sufficient to wet plants to run-off. As a control, 100-110 milliliters of a water-acetone-emulsifier solution containing no test compound were also sprayed on infested plants. When dry, the paired leaves were separated and each was placed in a 9 centimeter Petri dish lined with moistened filter paper. Five randomly selected larvae were introduced into each dish, and the dishes were closed. The closed dishes were labeled and held at a temperature of […]. for three days. Although the larvae could easily consume the leaf within 24 to 48 hours, no more food was added. Larvae which were unable to move the length of the body, even upon stimulation, were considered dead.
as §3

Structure (SMILES) | Bean Aphid pesticidal activity rating [1] | Mite pesticidal activity rating [2] | House-Fly pesticidal activity rating [3] | Southern Armyworm pesticidal activity rating [4] | Mexican Bean Beetle pesticidal activity rating [5]
CCCCN=C1SC(=NOC(=O)N(C)SC(Cl)(Cl)Cl)C(C)(C)S1 [LIII] | A | A | A | C | A
CCCCN=C1SC(=NOC(=O)NC)C(C)(C)S1 [LII] | A | C | A | B | A
CNC(=O)ON=C1SC(=NC2CCCCC2)SC1(C)C [LIV] | A | B | A | C | B
CNC(=O)ON=C1SC(=NS(=O)(=O)c2ccc(C)cc2)SC1(C)C [LIX] | C | C | C | C | C
CN(SC(Cl)(Cl)Cl)C(=O)ON=C1SC(=NC(C)(C)C)SC1(C)C [LI] | A | B | A | C | A
CN(SC(Cl)(Cl)Cl)C(=O)ON=C1SC(=NS(C)(=O)=O)SC1(C)C [LVIII] | C | C | B | C | B
CNC(=O)ON=C1SC(=NS(C)(=O)=O)SC1(C)C [LVII] | B | C | B | B | B
CN(C)N=C1SC(=NOC(=O)N(C)SC(Cl)(Cl)Cl)C(C)(C)S1 [LVI] | A | A | A | A | A
CNC(=O)ON=C1SC(=C(C#N)C#N)SC1(C)C [LXII] | C | C | C | C | C
CN(SSC(C)(C)C)C(=O)ON=C1SC(=C(C#N)C#N)SC1(C)C [LXIV] | A | C | B | B | A
CNC(=O)ON=C1SC(=NC#N)SC1(C)C [LXIX] | C | C | C | C | C
CCOC(=O)C(C#N)=C1SC(=NOC(=O)NC)C(C)(C)S1 [LXI] | C | C | C | C | A
